# Assay results reported in a melting point compilation (Tetko et al.; mined from patent text by program, amines drawn as free bases though some values may be those of a salt).
# Starred links: 1 amine or outer side, 2 acyl side, 3 side chain; linkers in the order of their positions; H or OH if unused. Non-standard residues stand in square brackets, D forms with d. Residues, ends and D or L forms follow the SMILES beside them. ξ: configuration not given here. *: point of attachment. ξPhe(4-NO2) = NC(Cc1ccc([N+](=O)[O-])cc1)C(=O)O; γGlu = O=C(O)[CH](CCC(=O)[*:2])N[*:1]; Lauroyl = CCCCCCCCCCCC(=O)*; Boc = CC(C)(C)OC(=O)*; OBn = c1ccc(CO*)cc1
row,Structure (SMILES),melting point
1,CON(C)C(=O)c1cc([N+](=O)[O-])c(F)cc1Cl,89 °C
2,O=C(O)C(=NOC1CCCC1)c1ccco1,96.6 to 97.7 °C
3,COCCOC(=O)c1cncn1C1CCCc2ccccc21 (stereo not given),66.8 °C
4,CN1CCC(O)(C(c2cc(Cl)ccc2F)n2cccc2)CC1 (stereo not given),124 to 125 °C
5,CC(C)(C)OC(=O)NC(Cc1ccc([N+](=O)[O-])cc1)C(=O)NCC(=O)OCc1ccccc1 (stereo not given) (Boc-[ξPhe(4-NO2)]-Gly-OBn),115 to 118 °C
6,CC1(C)COc2ccc(OS(C)(=O)=O)cc21,75 to 77 °C
7,CCOC(=O)C(=C1NCCCN1OC)[N+](=O)[O-],177 to 178 °C
8,CCCc1cc2c(=O)n3cc(C(N)=O)ccc3nc2s1,260 to 264 °C
9,Nc1c(Cl)cccc1C(=O)c1ccccc1F,86 to 87.5 °C
10,c1ccc(Oc2ccc(OCn3cnc4ccccc43)cc2)cc1,112 °C
11,COC(=O)CNCc1ccc(OCc2ccccc2)cc1,57 to 58 °C
12,CSc1nc(Cl)c(-c2c(F)cc(F)cc2F)c(N2CCCC(C)O2)n1 (stereo not given),110 to 111 °C
13,COc1ccc2cc(C3(O)CN4CCC3CC4)ccc2c1 (racemic),> 330 °C
14,CCOC(=O)c1nc[nH]c1F,153 to 154 °C
15,OC1CCc2c(-c3cccs3)cccc21 (stereo not given),101 to 104 °C
16,CC(C)NC(=O)N1C(=O)Cc2ccccc21,84 to 85.5 °C
17,COc1ccn2c(Cl)c(CCc3ccc4nc(N)oc4c3)nc2c1,225 to 227 °C
18,O=CNC1Cc2cc(Br)ccc2N(C=O)C1 (stereo not given),174 to 178 °C
19,O=[N+]([O-])c1ccc(N(CCBr)S(=O)(=O)c2ccccc2)cc1,168 °C
20,CC1(C)CC(Br)c2cc(C#N)ccc2O1 (stereo not given),94 to 95 °C
21,CS(=O)(=O)NCC1COCc2nc3c(N)nc4ccccc4c3n21 (stereo not given),285 to 288 °C
22,COc1ccc(Nc2nc3cc4c(cc3[nH]2)C(C)(C)CC(=O)N4)cc1,283 to 287 °C
23,O=C(O)c1ccc2oc3c(c(=O)c2c1)CCCC3,253 to 255 °C
24,CCOc1c(C=NOC)c(=O)n(C)c(=O)n1C,108 to 109 °C
25,CC(=O)N1CCc2[nH]c3cc(-n4ccc(OCc5ccccc5)cc4=O)ccc3c2CC1,250 to 254 °C
26,CC(=CC(=O)O)c1ccc(-c2ccc(F)cc2F)cc1,193 to 195 °C
27,CC(C)CNC(=O)c1c[nH]c2ncc(-c3nn(C)c4cc(F)ccc34)nc12,285 to 287 °C

row,Structure (SMILES),melting point
1,c1ccc(COc2ccc(N3CCN(Cc4nc5ccccc5[nH]4)CC3)nc2)cc1,62 to 64 °C
2,CC(=O)Nc1ccc(-c2ccc3c(c2)CC(C(=O)O)O3)cc1 (stereo not given),274 to 276 °C
3,CCOC(=O)c1cc(=O)c2ccc(OCCCCl)cc2o1,107 to 108 °C
4,CC1(C)COC(=O)OC1,108 to 109 °C
5,CCOC(=O)c1cnc(N2CCSCC2)nc1Cl,81 to 83 °C
6,CC(NC(=O)C(O)c1cc(F)cc(F)c1)C(=O)NC1N=C(c2ccccc2)c2ccccc2N(C)C1=O (stereo not given),128 °C
7,NCC1CCc2[nH]c3ccc(Cl)cc3c2C1 (stereo not given),142 to 144 °C
8,CCOC(=O)CN1CCN(c2ccccc2[N+](=O)[O-])CC1,122 °C
9,CCOC(=O)COc1cc2cc(C(C)O)sc2c(Cl)c1Cl (stereo not given),101 to 103 °C
10,Cc1nc2c(Br)cccc2c(=O)n1C1CCC(=O)NC1=O (stereo not given),307 to 309 °C
11,Cc1ccccc1-n1c(=O)c(N2CCNCC2)nc2ccccc21,151 to 153 °C
12,COC(=O)C1=Cc2cc(Br)ccc2N(CC2(C)OCCO2)CC1,96 to 99 °C
13,Cc1cccc2c1CCC(=NO)C2(O)C(F)(F)F (stereo not given),154 to 156 °C
14,CCN(CC)c1cc(=O)c2c(o1)c(OC)cc1ccccc12,150 to 151 °C
15,CN(C)c1cc2c(cc1C(F)(F)F)NC(=O)CC(c1ccnc(C#N)c1)=N2,248 °C
16,N#Cc1c(I)[nH]c(I)c1I,257 to 258 °C
17,CCOC(=O)Nc1ccc(N2CCC(=O)CC2)cc1,145 to 146 °C
18,CCOCn1c(Cl)c(Cl)c(C#N)c1-c1ccc(Cl)c(Cl)c1,128 to 130 °C
19,NC(CO)(CO)CCCCCCCCCCCCCc1ccccc1,61 to 64 °C
20,NC(=O)c1sc2nccc(N3CCCC(O)C3)c2c1N (stereo not given),208 to 211 °C
21,CCCNC(=O)C1C=C2CC=C(OC)C=C2N1CCNC(C)=O (stereo not given),127 to 128 °C
22,CCN1CCN(c2cccc3ccc(NC(=O)c4ccc(Cl)cc4)cc23)CC1,173 to 174 °C
23,O=C(O)CCOc1cccc(/C=C/c2nc3ccccc3s2)c1,177 to 178 °C
24,Cc1nc(N)nc(N)c1-c1c(Cl)cccc1Cl,250 °C
25,COc1ccc2c(c1)C(CCNC(=O)c1ccc(Br)cc1)CC2 (stereo not given),142 to 143 °C
26,CNC(=O)Nc1cc(-c2ccc(S(C)(=O)=O)cc2)c(-c2ccc(F)cc2)s1,70 to 75 °C
27,COC(=O)c1cc2cc(OC)ccc2[nH]1,178 to 181 °C

row,Structure (SMILES),melting point
1,COc1cccc([C@H]2O[C@H](CC(=O)NCc3ccc(C(=O)O)o3)C(=O)N(CC(C)(C)CO)c3ccc(Cl)cc32)c1OC,128 to 131 °C
2,c1ccc2nc(N3CCNCC3)cnc2c1,74 to 76 °C
3,CCOC(=O)c1cnc2ccc(-c3ccc(Cl)cc3)cn12,130 °C
4,Cc1c(C(=O)O)nc2c(=O)[nH]c3cc(C(F)(F)F)c(-n4cccc4)cc3n12,265 to 270 °C
5,CC(=O)NC[C@H]1CN(c2ccc(C3=CCN(C(=O)OCc4ccccc4)CC3)cc2)C(=O)O1,166 to 169 °C
6,COc1ccc(-c2ccc(C(C)=O)cc2)cc1C=O,136 to 138 °C
7,COc1cccc(-c2cccc(C(N)=O)c2)c1,138 to 140 °C
8,CC1(C)CC(O)c2cc(N)ccc21 (stereo not given),118 °C
9,COc1ccc(C2C=C3CCN(C)CC3C(CO)C2CO)cc1 (stereo not given),169 to 171 °C
10,CC1(C)SC(c2ccccc2O)NC1C(=O)O (stereo not given),179 to 181 °C
11,CCCCCCC(C(=O)O)c1cccc(Sc2ccccc2C)c1O (stereo not given),90 to 91 °C
12,CS(=O)(=O)Nc1ccc(C(=O)Nc2cn3cc(Cl)ccc3n2)cc1,293 to 295 °C
13,CC(C)(C)OC(=O)N[C@@H](Cc1ccccc1)C(=O)N1CCN(C(c2ccc(F)cc2)c2ccc(F)cc2)CC1,54 to 74 °C
14,CCOC(=O)CN1c2ccccc2N(C)C(=O)c2cccnc21,99 to 100 °C
15,COC(=O)C[C@H]1[C@H](C(=O)N(C)OC)C(=O)N1C(c1ccccc1)(c1ccccc1)c1ccccc1,168 to 169 °C
16,Cc1cc(OCCO)c2ccccc2c1O,136 to 137 °C
17,CC(=O)NC[C@H]1CN(c2ccc3c(c2)CCS(=O)(=O)CC3)C(=O)O1,142 to 144 °C
18,CC(C)(C)NCC(O)COc1cc(N)ccc1-c1ccc(=O)[nH]n1 (stereo not given),198 to 202 °C
19,Cc1nc(-n2ccccc2=O)sc1C(=O)NCc1ccc(F)cc1,170 to 172 °C
20,CCCCc1nn(-c2cc(NC(=O)CC)ccc2Cl)c(=O)n1Cc1ccc(-c2ccccc2S(=O)(=O)NC(=O)c2ccccc2Oc2ccccc2)cc1,113 to 116 °C
21,O=C1C(=O)N2CCSc3cc(Br)cc1c32,196 °C
22,O=C(Nc1ccccc1)c1cc(Oc2ccc(C(F)(F)F)cc2Cl)ccc1[N+](=O)[O-],190 to 194 °C
23,CSC(=S)N1C(CO)Cc2c([nH]c3ccccc23)C1CO (stereo not given),179 to 180 °C
24,C=C1C[C@@H]2C(=O)NC(=O)[C@@H]2C1,135 to 137 °C
25,O=C(O)CCCNc1ccc2c(NC(=O)CC3CCCCC3)c(Cl)ccc2n1,248 to 250 °C
26,COC(=O)Nc1cc(Oc2ccc3c(C(=O)Nc4ccc(CN5CCNCC5)c(C(F)(F)F)c4)cccc3c2)ncn1,138 to 148 °C
27,O=C(NCCCCCCOc1ccccc1C(=O)Nc1ccc(C(=O)N2CCCCc3ccccc32)cc1)c1ccccc1,178 °C

row,Structure (SMILES),melting point
1,O=C(O)CCC(=NO)c1ccc(-c2ccc(Cl)cc2F)cc1,148 to 150 °C
2,CC(C)(C)OC(=O)N1C[C@@H]2SCCC(c3ccccc3)(c3ccccc3)[C@@H]2C1 (racemic),162 °C
3,COC1C=C(C)C(=O)CC(C)(C)C1OC(=O)c1ccccc1 (stereo not given),91.5 to 93.5 °C
4,CCCOc1ccccc1C1=NC(=O)C2=NC(C)=NC2=N1,264 to 265 °C
5,O=C1CC2c3c(Br)cccc3CCC23OCC(c2ccccc2)N13 (stereo not given),123 to 126 °C
6,Cc1ccc(-n2c(-c3ccc(Br)cc3)c(Br)c(Br)c2-c2ccc(Br)cc2)cc1,240 to 242 °C
7,CCOC(=O)c1c([N+](=O)[O-])c(C)nn1C,47 to 48 °C
8,COc1ccc(CC[N+](=O)[O-])cc1OC,50 to 52 °C
9,COC(=O)c1cc(-c2nc(COc3ccc(COc4nn(-c5ccccc5)cc4C=O)cc3OC)c(C)o2)ccc1OC,165 to 166 °C
10,C[Si](C)(C)NS(C)(=O)=O,69 to 74.5 °C
11,COc1cc2c(cc1-c1ccccc1F)NC(=O)CC(c1ccnc(C#N)c1)=N2,240 to 242 °C
12,CCCCCCCCCCCC(=O)NC(C)C(=O)NC(CCC(=O)NC(CCCCN)C(=O)O)C(=O)O (stereo not given) (Lauroyl-Ala-[γGlu]-Lys-OH; configuration not given here),180 to 186 °C
13,OCc1cc(Cl)c(Cl)c(Cl)n1,82 to 83 °C
14,CCc1cccc(C)c1S(=O)(=O)c1nc[nH]n1,180 to 181 °C
15,CC1(C)Oc2ccc(OC(F)(F)F)cc2[C@@H](NC(=O)c2ccccc2[N+](=O)[O-])[C@@H]1O,189 to 190 °C
16,CS(=O)(=O)Oc1cc([N+](=O)[O-])c(F)cc1Cl,64 to 65.5 °C
17,CCS(=O)(=O)NCC(O)(Cn1cncn1)c1ccc(Cl)cc1Cl (stereo not given),144 to 145 °C
18,CCc1c(CCNC(=O)CCCCC(=O)OC)ccc(OC)c1OC,37 to 39 °C
19,Cc1nc(-c2ccc(CCN3CCN(c4nsc5ccccc45)CC3)cc2)cs1,135 to 140 °C
20,CCN1c2ccc(Cl)cc2C=C(C(=O)O)C1C(F)(F)F (stereo not given),201 to 202 °C
21,COc1ccc2c(c1)CCC1CCN(C)C(=O)C(CC(C)NC(C)C)=C21 (stereo not given),118 to 120 °C
22,COc1cc(Cl)ccc1CCl,43 to 45 °C
23,CC1=C(c2ccc(C(=O)N3Cc4ccc(C(=O)C(Cl)(Cl)Cl)n4Cc4ccccc43)cc2)CCCC1,171 °C
24,CCc1cn(C2CC(O)C(CN=[N+]=[N-])O2)c(=O)[nH]c1=O (stereo not given),174 to 177 °C
